What was measured:
[1] = biological target: T1, Chymotrypsin-like elastase family member 2A (Sus scrofa) (UniProt P08419); test: Irreversible inhibitory activity against porcine pancreatic elastase at concentration 4.8 uM; No irreversible inhibitory activity
T1 sequence (whole entry): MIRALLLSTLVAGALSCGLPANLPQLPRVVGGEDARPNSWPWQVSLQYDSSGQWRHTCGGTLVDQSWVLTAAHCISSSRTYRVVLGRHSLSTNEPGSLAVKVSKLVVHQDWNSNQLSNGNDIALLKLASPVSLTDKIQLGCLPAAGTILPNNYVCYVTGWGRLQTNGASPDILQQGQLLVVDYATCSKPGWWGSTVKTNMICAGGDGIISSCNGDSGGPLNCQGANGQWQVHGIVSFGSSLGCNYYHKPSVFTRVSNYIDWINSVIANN

[2] = biological target: Chymotrypsinogen A (Bos taurus) (UniProt P00766); test: Irreversible inhibitory activity against alpha-chymotrypsin; Inhibition observed
[3] = biological target: Chymotrypsinogen A (Bos taurus) (UniProt P00766); test: Irreversible inhibitory activity against alpha-chymotrypsin; No inhibition

CC(NC(=O)C(C)NC(=O)CCC(=O)N[C@@H](Cc1ccccc1)C(=O)OC1CC1(Cl)Cl)C(=O)O (some centres undefined)
Activity [1]: 1.2 mM
Activity [2]: 500 µM

O=C(O)CCC(=O)N[C@@H](Cc1ccccc1)C(=O)NC1CC1(Cl)Cl (some centres undefined)
Activity [3]: 14.5 mM

O=C(O)CCC(=O)N[C@@H](Cc1ccccc1)C(=O)OC1CC1(Cl)Cl (some centres undefined)
Activity [3]: < 1 mM

— ChEMBL document CHEMBL1128985, “Mechanism-based inactivation of -chymotrypsin” (Bioorg Med Chem Lett, 1996)
